Where two headings read alike, the source gives them in different places.
Key:
[1] = test system: steady-state neuromuscular block induced by the muscle relaxant rocuronium bromide (Roc); details: anaesthetized guinea pigs, as already described in WO 01/12202, cited from earlier work; for ED50, dose producing 50% reversal of steady-state neuromuscular block: parent cyclodextrins for comparison; for % max reversal / dose at maximum reversal: parent cyclodextrins
[2] = test system: steady-state neuromuscular block induced by the muscle relaxant rocuronium bromide (Roc); test: Reversal of neuromuscular blockade in anaesthetized guinea pigs in vivo; parameters: species or system guinea pig
Experimental: Reversal of Neuromuscular Blockade in Anaesthetized Guinea Pigs in vivo Male Dunkin-Hartley guinea pigs (bodyweight: 600–900 g) were anaesthetized by i.p. administration of 10 mg/kg pentobarbitone and 1000 mg/kg urethane. After tracheotomy, the animals were artificially ventilated using a Harvard small animal ventilator. A catheter was placed into the carotid artery for continuous monitoring of arterial blood pressure and the taking of blood samples for blood gas analysis. Heart rate was derived from the blood pressure signal. The sciatic nerve was stimulated (rectangular pulses of 0.5 ms duration at 10 s (0.1 Hz) intervals at a supramaximal voltage, using a Grass S88 Stimulator) and the force of M. gastrocnemius contractions was measured using a Grass FT03 force-displacement transducer. Contractions, blood pressure and heart rate were recorded on a multichannel Grass 7D recorder. Catheters were placed in both jugular veins. One catheter was used for the continuous infusion of a neuromuscular blocking agent. […] The other catheter was used for administration of increasing doses of the reversal agent. During continuous infusion of the neuromuscular blocking agent, single doses of increasing concentration of reversal agent were given.

SMILES	ED50, dose producing 50% reversal of steady-state neuromuscular block [1]	% max reversal [1]	dose at maximum reversal [1]	% max reversal ([2]; anaesthetized guinea pigs, rocuronium bromide-induced steady-state block)	concentration at maximum reversal ([2]; anaesthetized guinea pigs, rocuronium bromide-induced steady-state block, dose at which % max reversal was reached)	ED50, dose producing 50% reversal of steady-state neuromuscular block ([2]; anaesthetized male Dunkin-Hartley guinea pigs, rocuronium bromide infusion to steady-state block of 85–90%, reversal agent i.v. in increasing doses)
OC[C@H]1O[C@@H]2O[C@H]3[C@H](O)[C@@H](O)[C@@H](O[C@H]4[C@H](O)[C@@H](O)[C@@H](O[C@H]5[C@H](O)[C@@H](O)[C@@H](O[C@H]6[C@H](O)[C@@H](O)[C@@H](O[C@H]7[C@H](O)[C@@H](O)[C@@H](O[C@H]8[C@H](O)[C@@H](O)[C@@H](O[C@H]1[C@H](O)[C@H]2O)O[C@@H]8CO)O[C@@H]7CO)O[C@@H]6CO)O[C@@H]5CO)O[C@@H]4CO)O[C@@H]3CO [β-cyclodextrin]	20 µmol/kg	93%	(113) μmol · kg^−1	–	–	–
OC[C@H]1O[C@@H]2O[C@H]3[C@H](O)[C@@H](O)[C@@H](O[C@H]4[C@H](O)[C@@H](O)[C@@H](O[C@H]5[C@H](O)[C@@H](O)[C@@H](O[C@H]6[C@H](O)[C@@H](O)[C@@H](O[C@H]7[C@H](O)[C@@H](O)[C@@H](O[C@H]8[C@H](O)[C@@H](O)[C@@H](O[C@H]9[C@H](O)[C@@H](O)[C@@H](O[C@H]1[C@H](O)[C@H]2O)O[C@@H]9CO)O[C@@H]8CO)O[C@@H]7CO)O[C@@H]6CO)O[C@@H]5CO)O[C@@H]4CO)O[C@@H]3CO [γ-cyclodextrin]	4 µmol/kg	104%	(47) μmol · kg^−1	–	–	–
O=C([O-])c1ccc(CO[C@H]2[C@H]3O[C@H]4[C@H](O)[C@@H](OCc5ccc(C(=O)[O-])cc5)[C@@H](O[C@H]5[C@H](O)[C@@H](OCc6ccc(C(=O)[O-])cc6)[C@@H](O[C@H]6[C@H](O)[C@@H](OCc7ccc(C(=O)[O-])cc7)[C@@H](O[C@H]7[C@H](O)[C@@H](OCc8ccc(C(=O)[O-])cc8)[C@@H](O[C@H]8[C@H](O)[C@@H](OCc9ccc(C(=O)[O-])cc9)[C@@H](O[C@H]9[C@H](O)[C@@H](OCc%10ccc(C(=O)[O-])cc%10)[C@@H](O[C@H]%10[C@H](O)[C@@H](OCc%11ccc(C(=O)[O-])cc%11)[C@@H](O[C@@H]([C@@H]2O)[C@@H](CO)O3)O[C@@H]%10CO)O[C@@H]9CO)O[C@@H]8CO)O[C@@H]7CO)O[C@@H]6CO)O[C@@H]5CO)O[C@@H]4CO)cc1.[Na+].[Na+].[Na+].[Na+].[Na+].[Na+].[Na+].[Na+] [Example 3, Octakis per-2-O-(4-carboxybenzyl)-γ-cyclodextrin, Na salt]	–	–	–	97%	(0.8) μmol · kg^−1	0.20 µmol/kg

Reference: patent US7026304B2, “2-alkylated-cyclodextrin derivatives: reversal agents for drug-induced neuromuscular block” (Akzo Nobel N.V., priority 2001, dated 2006)
